According to PubChem BioAssay (NCI):
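Growth conditions: 96-well plates. Treatment: test compound, 48 hours, 5 concentrations. Analysis: linear interpolation between bracketing concentrations; unreached endpoints set to highest concentration. Abbreviation: GI50, concentration required for 50% inhibition of growth. TGI denotes the concentration required for complete inhibition of growth.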

What was measured:
Experiment in all cases: NCI anticancer screen, dose series, 48 h
CAKI-1 renal = tested on: CAKI-1 renal
HCC-2998 colon = tested on: HCC-2998 colon
MDA-MB-231 breast = tested on: MDA-MB-231 breast
MDA-N = tested on: MDA-N
NCI-H522 lung = tested on: NCI-H522 lung
PC-3 prostate = tested on: PC-3 prostate
SF-268 CNS = tested on: SF-268 CNS
SK-MEL-5 melanoma = tested on: SK-MEL-5 melanoma
BT-549 breast = tested on: BT-549 breast
NCI-H460 lung = tested on: NCI-H460 lung

NC1CC=C(COC(=O)C(O)(c2ccccc2)C2CC2)CC1 (centres undefined)
TGI (CAKI-1 renal): > 100 µM | TGI (HCC-2998 colon): > 100 µM | TGI (MDA-MB-231 breast): > 100 µM | TGI (MDA-N): > 100 µM | TGI (NCI-H522 lung): > 100 µM | TGI (PC-3 prostate): > 100 µM | TGI (SF-268 CNS): > 100 µM | TGI (SK-MEL-5 melanoma): > 100 µM

Cc1ccc(N=C2C(=Nc3ccc(C)cc3)N(c3ccc(C)cc3)C(=S)N2C(=O)c2ccccc2)cc1
TGI (BT-549 breast): > 100 µM | TGI (CAKI-1 renal): > 100 µM | TGI (HCC-2998 colon): > 100 µM | TGI (MDA-MB-231 breast): > 100 µM | TGI (MDA-N): > 100 µM | TGI (NCI-H460 lung): > 100 µM | TGI (NCI-H522 lung): > 100 µM | TGI (PC-3 prostate): > 100 µM | TGI (SF-268 CNS): > 100 µM | TGI (SK-MEL-5 melanoma): > 100 µM

C=CCC(C(=O)Nc1cccc2[nH]cnc12)C(=O)OCC (centres undefined)
TGI (BT-549 breast): > 100 µM | TGI (HCC-2998 colon): > 100 µM | TGI (MDA-MB-231 breast): > 100 µM | TGI (MDA-N): > 100 µM | TGI (NCI-H460 lung): > 100 µM | TGI (NCI-H522 lung): > 100 µM | TGI (PC-3 prostate): > 100 µM | TGI (SF-268 CNS): > 100 µM

O=c1ccc2nc(-c3ccccn3)nn(-c3ccccc3)c-2c1
GI50 (BT-549 breast): 2860 nM | TGI (BT-549 breast): 10.1 µM | GI50 (CAKI-1 renal): 1490 nM | TGI (CAKI-1 renal): 2.84 µM | GI50 (HCC-2998 colon): 4.18 µM | TGI (HCC-2998 colon): 14.6 µM | GI50 (MDA-MB-231 breast): 1920 nM | TGI (MDA-MB-231 breast): 3.68 µM | GI50 (NCI-H460 lung): 15.5 µM | TGI (NCI-H460 lung): 32.8 µM | GI50 (NCI-H522 lung): 1490 nM | TGI (NCI-H522 lung): 3.09 µM | GI50 (PC-3 prostate): 1930 nM | TGI (PC-3 prostate): 4.18 µM | GI50 (SF-268 CNS): 11.8 µM | TGI (SF-268 CNS): 25.3 µM | GI50 (SK-MEL-5 melanoma): 2300 nM | TGI (SK-MEL-5 melanoma): 5.53 µM

CCOC(=O)c1c(-c2cccc3ccccc23)c(C#N)c(=S)n(C2OC(COC(C)=O)C(OC(C)=O)C(OC(C)=O)C2OC(C)=O)c1C (centres undefined)
TGI (HCC-2998 colon): > 100 µM | TGI (MDA-MB-231 breast): > 100 µM | TGI (MDA-N): > 100 µM | TGI (NCI-H460 lung): > 100 µM | TGI (NCI-H522 lung): > 100 µM | TGI (PC-3 prostate): > 100 µM | TGI (SF-268 CNS): > 100 µM | TGI (SK-MEL-5 melanoma): > 100 µM

COc1ccc(C[C@H](N)C(=O)N2C[C@@H](CO)C[C@@H](n3ccc(=O)[nH]c3=O)C2)cc1
TGI (CAKI-1 renal): > 100 µM | TGI (HCC-2998 colon): > 100 µM | TGI (NCI-H460 lung): > 100 µM | TGI (NCI-H522 lung): > 100 µM | TGI (SF-268 CNS): > 100 µM | TGI (SK-MEL-5 melanoma): > 100 µM

O=c1[nH]c(=S)c2cc3c(=S)[nH]c(=O)n(CCO)c3nc2n1CCO
TGI (BT-549 breast): > 100 µM | TGI (CAKI-1 renal): > 100 µM | TGI (HCC-2998 colon): > 100 µM | TGI (MDA-MB-231 breast): > 100 µM | TGI (MDA-N): > 100 µM | TGI (NCI-H460 lung): > 100 µM | TGI (NCI-H522 lung): > 100 µM | TGI (PC-3 prostate): > 100 µM | TGI (SF-268 CNS): > 100 µM | TGI (SK-MEL-5 melanoma): > 100 µM

COc1ccc(-c2nn(-c3ccc(NC(=O)Nc4ccc(Cl)c(C(F)(F)F)c4)cc3)cc2-c2ccncc2)cc1Cl
GI50 (CAKI-1 renal): 1780 nM | TGI (CAKI-1 renal): 5.18 µM | GI50 (HCC-2998 colon): 2.19 µM | TGI (HCC-2998 colon): 7.97 µM | GI50 (MDA-MB-231 breast): 1200 nM | TGI (MDA-MB-231 breast): 2.67 µM | GI50 (NCI-H460 lung): 1.4 µM | TGI (NCI-H460 lung): 3.36 µM | GI50 (NCI-H522 lung): 1270 nM | TGI (NCI-H522 lung): 3.95 µM | GI50 (PC-3 prostate): 793 nM | TGI (PC-3 prostate): 5.49 µM | GI50 (SF-268 CNS): 2.8 µM | TGI (SF-268 CNS): 19.5 µM | GI50 (SK-MEL-5 melanoma): 1500 nM | TGI (SK-MEL-5 melanoma): 2.82 µM

C[N+](C)(CCNC(=O)c1cccc2cc3ccccc3nc12)Cc1ccc([N+](=O)[O-])s1
TGI (BT-549 breast): > 25 µM | TGI (CAKI-1 renal): > 25 µM | TGI (MDA-MB-231 breast): > 25 µM | TGI (MDA-N): > 25 µM | TGI (NCI-H522 lung): > 25 µM | TGI (PC-3 prostate): > 25 µM | TGI (SF-268 CNS): > 25 µM | TGI (SK-MEL-5 melanoma): > 25 µM

Cc1ccc(-n2cc([Si](C)(C)C)nn2)s1
TGI (BT-549 breast): > 100 µM | TGI (CAKI-1 renal): > 100 µM | TGI (HCC-2998 colon): > 100 µM | TGI (MDA-MB-231 breast): > 100 µM | TGI (MDA-N): > 100 µM | TGI (NCI-H460 lung): > 100 µM | TGI (NCI-H522 lung): > 100 µM | TGI (PC-3 prostate): > 100 µM | TGI (SF-268 CNS): > 100 µM | TGI (SK-MEL-5 melanoma): > 100 µM

N#CC(C#N)=C1C(=O)NC(N)=C1C#N
TGI (BT-549 breast): > 100 µM | TGI (CAKI-1 renal): > 100 µM | TGI (HCC-2998 colon): > 100 µM | TGI (MDA-MB-231 breast): > 100 µM | TGI (MDA-N): > 100 µM | TGI (NCI-H460 lung): > 100 µM | TGI (NCI-H522 lung): > 100 µM | TGI (PC-3 prostate): > 100 µM | TGI (SF-268 CNS): > 100 µM | TGI (SK-MEL-5 melanoma): > 100 µM

CCOc1ccc2c(c1)c(=O)c1c(NCCN(CC)CC)ccc3nnn2c31
TGI (BT-549 breast): > 100 µM | TGI (CAKI-1 renal): 41.6 µM | TGI (HCC-2998 colon): > 50.4 µM | TGI (MDA-MB-231 breast): 58.5 µM | TGI (MDA-N): 35.7 µM | TGI (NCI-H460 lung): > 57.8 µM | TGI (NCI-H522 lung): 27.8 µM | TGI (PC-3 prostate): 49.7 µM | TGI (SF-268 CNS): > 80.2 µM | TGI (SK-MEL-5 melanoma): 31.1 µM

C=C(c1ccccc1)c1ccccc1-c1cc(-c2ccccc2)cc(-c2ccccc2)n1
TGI (CAKI-1 renal): > 100 µM | TGI (HCC-2998 colon): > 100 µM | TGI (MDA-MB-231 breast): > 100 µM | TGI (MDA-N): > 100 µM | TGI (NCI-H460 lung): > 100 µM | TGI (NCI-H522 lung): > 100 µM | TGI (PC-3 prostate): > 100 µM | TGI (SF-268 CNS): > 100 µM | TGI (SK-MEL-5 melanoma): > 100 µM

Cc1cn(S(=O)(=O)c2ccccc2)c2c(OCc3ccccc3)cc(NS(C)(=O)=O)cc12
TGI (BT-549 breast): > 100 µM | TGI (CAKI-1 renal): > 100 µM | TGI (HCC-2998 colon): > 100 µM | TGI (MDA-MB-231 breast): 32.8 µM | TGI (MDA-N): > 100 µM | TGI (NCI-H460 lung): > 100 µM | TGI (NCI-H522 lung): > 75.9 µM | TGI (PC-3 prostate): 29 µM | TGI (SF-268 CNS): > 77.9 µM | TGI (SK-MEL-5 melanoma): 16.6 µM

COc1ccc(C2=NN=C3C(c4ccccc4)=Nc4ccccc4N3C2)cc1
TGI (BT-549 breast): > 100 µM | TGI (HCC-2998 colon): > 100 µM | TGI (MDA-MB-231 breast): > 100 µM | TGI (MDA-N): > 100 µM | TGI (NCI-H460 lung): > 100 µM | TGI (PC-3 prostate): > 100 µM | TGI (SF-268 CNS): > 100 µM | TGI (SK-MEL-5 melanoma): > 100 µM

O=C(O)C(=O)/C=C(\O)c1ccc(Br)cc1
TGI (BT-549 breast): > 100 µM | TGI (CAKI-1 renal): > 100 µM | TGI (HCC-2998 colon): > 100 µM | TGI (MDA-MB-231 breast): > 100 µM | TGI (MDA-N): > 100 µM | TGI (NCI-H460 lung): > 100 µM | TGI (NCI-H522 lung): > 100 µM | TGI (PC-3 prostate): > 100 µM | TGI (SF-268 CNS): > 100 µM | TGI (SK-MEL-5 melanoma): > 100 µM

OC(CC(O)(C(F)(F)F)C(F)(F)F)c1ccc(C(O)CC(O)(C(F)(F)F)C(F)(F)F)cc1 (centres undefined)
TGI (CAKI-1 renal): 27.3 µM | TGI (HCC-2998 colon): 33.3 µM | TGI (MDA-MB-231 breast): 28.7 µM | TGI (MDA-N): 35.4 µM | TGI (NCI-H460 lung): 31.6 µM | TGI (NCI-H522 lung): 40.5 µM | TGI (PC-3 prostate): 32.5 µM | TGI (SF-268 CNS): 28.9 µM | TGI (SK-MEL-5 melanoma): 27.3 µM

CCC[C@@H]1C(=O)N=C(N)N1C(=O)OCc1ccccc1
TGI (BT-549 breast): > 100 µM | TGI (CAKI-1 renal): > 100 µM | TGI (HCC-2998 colon): > 100 µM | TGI (MDA-MB-231 breast): > 100 µM | TGI (MDA-N): > 100 µM | TGI (NCI-H460 lung): > 100 µM | TGI (NCI-H522 lung): > 100 µM | TGI (PC-3 prostate): > 100 µM | TGI (SF-268 CNS): > 100 µM | TGI (SK-MEL-5 melanoma): > 100 µM

COC(=O)C1=C(C(=O)OC)SC2(S1)C(C(=O)OC)=C(C(=O)OC)Sc1c2ssc1=NC(C)(C)C
TGI (BT-549 breast): 7.47 µM | TGI (CAKI-1 renal): 4.01 µM | TGI (MDA-MB-231 breast): 3.44 µM | TGI (PC-3 prostate): 2.75 µM | TGI (SF-268 CNS): 4.72 µM | TGI (SK-MEL-5 melanoma): 4.92 µM

COC(=O)c1c(O)ccc2c1c1c(n2Cc2ccccc2)C(=O)c2ccccc2C1
TGI (BT-549 breast): > 100 µM | TGI (CAKI-1 renal): 87.2 µM | TGI (MDA-MB-231 breast): > 100 µM | TGI (MDA-N): > 100 µM | TGI (NCI-H460 lung): > 100 µM | TGI (PC-3 prostate): 60.5 µM | TGI (SF-268 CNS): > 100 µM | TGI (SK-MEL-5 melanoma): > 100 µM

Oc1ccc(Cl)cc1C1=NC(/N=C\c2ccccc2)=NC(c2ccccc2)C1 (centres undefined)
TGI (BT-549 breast): > 100 µM | TGI (CAKI-1 renal): 28.1 µM | TGI (MDA-MB-231 breast): > 100 µM | TGI (NCI-H522 lung): > 100 µM | TGI (PC-3 prostate): > 100 µM | TGI (SF-268 CNS): > 100 µM | TGI (SK-MEL-5 melanoma): 61.2 µM
